Reference: patent publication US20230139445A1, “BACTERIAL CELLS WITH IMPROVED TOLERANCE TO DIACIDS” (priority 2016, published 2023)

What was measured:
[1] = system: Escherichia coli K-12 MG1655 knockout mutants; assay: Growth Profiler growth screening of K-12 MG1655 single, double and triple knockout mutants in glutaric or adipic acid; format: cell-based; conditions: M9 + 50 g/L adipate (neutralized)
Description: Five colonies from wild-type K-12 MG1655 and 10 individual colonies deriving from each population were inoculated into 300 μL M9+1% glucose in 96 well deepwell plates and incubated in a 300 rpm plate shaker at 37° C. The next day, cells were diluted 10× in M9+1% glucose and 30 μL was transferred into clear-bottomed 96 well half-deepwell plates (with rectangular wells) containing M9+1% glucose and M9+1% glucose+52.78 g/L glutaric acid or 55.56 g/L adipic acid, such that the final concentration of glutaric acid or adipic acid was 47.5 g/L or 50 g/L, respectively. In addition, cryogenic glycerol stocks of the overnight culture were saved in a 96 well plate format. Half deepwell plates were incubated at 37° C. with 225 rpm shaking in a Growth Profiler (Enzyscreen), with optical scans of the plates taken at 15 minute intervals. Green pixel values integrated over a 1 mm diameter circular area in each well were converted to OD600 values using a previously determined calibration between OD600 and green pixel values. […] In general, it was attempted to select three isolates per population for further analysis, and all populations were represented in the resequenced isolates.
Selected isolates from the primary screen were restruck onto LB agar from the cryogenic stock made from the overnight culture plate for the primary screen. Five K-12 MG1655 colonies and three individual colonies from each isolate were inoculated as biological replicates into a new 96 well deepwell plate containing 300 μL of M9+1% glucose, and grown overnight as for the primary screen. The next day, a cryogenic stock and half deepwell plates containing M9+1% glucose with or without glutaric acid or adipic acid were inoculated using the plate of overnight cultures, and growth was measured as described for the primary screen.
Probable important losses-of-function were determined by identifying genes across all isolates that harboured mutations, especially those occurring in multiple populations, and by the presence of at least one mutation that either generated a premature stop codon, a frameshift mutation, or the presence of an insertion element sequence within the gene. For those genes, the corresponding knockout strain from the Keio collection of single knockout mutants (where each gene is replaced with a cassette consisting of a kanamycin resistance gene flanked by FRT sites) was used as a donor strain for P1vir phage transduction. Briefly, the Keio strain was grown to early exponential phase in LB+5 mM CaCl2 and 80 μL of a P1vir stock raised on K-12 MG1655 was added. After significant lysis was observed after 1.5 to 2 hours, the lysate was filter-sterilized to remove cells and stored at 4° C. Strain K-12 MG1655 was grown overnight in LB+5 mM CaCl2) and 100 μL of the overnight culture was mixed with 100 μL of the P1vir lysate of the Keio collection mutant, and the mixture was incubated at 37° C. without shaking for 20 minutes. The entire mixture was then plated on LB agar containing 1.25 mM sodium pyrophosphate as a chelating agent and 25 μg/mL kanamycin. One colony was then restruck on LB+1.25 mM […]+25 μg/mL kanamycin plate and analyzed for presence of the Keio cassette in place of the wild-type gene by colony PCR. When further knockouts were constructed in the same strain, the Keio cassette was flipped out to generate a scar sequence such that Kan^R marker could be recycled. […]

[2] = system: Escherichia coli K-12 MG1655 evolved isolates and knockout mutants; assay: Biolector growth screening of evolved isolates and reconstructed (knockout) mutants in glutaric or adipic acid; format: cell-based
Description: Biological triplicate cultures of each strain were grown to saturation overnight in 96 well deepwell plates containing 300 μL M9+1% glucose. The next day, cells were diluted 1:10 in deionized water in a clear 96 well plate and the OD600 was measured on a BioTek plate reader. 48 well FlowerPlates containing a final volume of 1.4 mL of M9+1/o glucose (plus relevant chemical) were inoculated to OD600 0.03 (with plate reader pathlength, 200 μL volume) with the overnight culture and sealed with Breathseal film. Light backscatter intensity was monitored in a Biolector microbioreactor system at 37° C. with 1000 rpm shaking.
Each re-sequenced isolate was characterized using the Biolector system for growth at the screening concentration of chemical (47.5 g/L glutaric acid or 50 g/L adipic acid) in biological triplicates.

[3] = strain ADIP1-1, M9 + 50 g/L adipic acid (neutralized with sodium hydroxide)
[4] = strain ADIP1-9, M9 + 50 g/L adipic acid (neutralized with sodium hydroxide)
[5] = strain ADIP2-5, M9 + 50 g/L adipic acid (neutralized with sodium hydroxide)
[6] = strain ADIP2-6, M9 + 50 g/L adipic acid (neutralized with sodium hydroxide)
[7] = strain ADIP2-10, M9 + 50 g/L adipic acid (neutralized with sodium hydroxide)
[8] = strain ADIP3-2, M9 + 50 g/L adipic acid (neutralized with sodium hydroxide)
[9] = strain ADIP3-4, M9 + 50 g/L adipic acid (neutralized with sodium hydroxide)
[10] = strain ADIP3-8, M9 + 50 g/L adipic acid (neutralized with sodium hydroxide)
[11] = strain ADIP4-8, M9 + 50 g/L adipic acid (neutralized with sodium hydroxide)
[12] = strain ADIP5-2, M9 + 50 g/L adipic acid (neutralized with sodium hydroxide)
[13] = strain ADIP5-6, M9 + 50 g/L adipic acid (neutralized with sodium hydroxide)
[14] = strain ADIP6-3, M9 + 50 g/L adipic acid (neutralized with sodium hydroxide)
[15] = strain ADIP6-9, M9 + 50 g/L adipic acid (neutralized with sodium hydroxide)
[16] = strain ADIP6-10, M9 + 50 g/L adipic acid (neutralized with sodium hydroxide)
[17] = strain ADIP7-2, M9 + 50 g/L adipic acid (neutralized with sodium hydroxide)
[18] = strain ADIP7-5, M9 + 50 g/L adipic acid (neutralized with sodium hydroxide)
[19] = strain ADIP8-3, M9 + 50 g/L adipic acid (neutralized with sodium hydroxide)
[20] = strain ADIP8-7, M9 + 50 g/L adipic acid (neutralized with sodium hydroxide)
[21] = strain ADIP8-10, M9 + 50 g/L adipic acid (neutralized with sodium hydroxide)
[22] = strain MG1655-1, M9 + 50 g/L adipic acid (neutralized with sodium hydroxide)

Compound: O=C(O)CCCCC(=O)O [adipic acid]
- mean growth rate μ ([1]; strain MG1655 ΔkgtP proV::kan): 0.264 h⁻¹
- mean lag time tlag ([1]; strain MG1655 ΔkgtP proV::kan): 16.5 h
- mean growth rate μ ([1]; strain MG1655 ΔkgtP sspA::kan): 0.117 h⁻¹
- mean growth rate μ [2, 3]: 0.315 h⁻¹
- mean lag time tlag [2, 3]: 16.6 h
- mean growth rate μ [2, 4]: 0.274 h⁻¹
- mean lag time tlag [2, 4]: 5.8 h
- mean growth rate μ [2, 5]: 0.332 h⁻¹
- mean lag time tlag [2, 5]: 20.1 h
- mean growth rate μ [2, 6]: 0.337 h⁻¹
- mean lag time tlag [2, 6]: 22.1 h
- mean growth rate μ [2, 7]: 0.326 h⁻¹
- mean lag time tlag [2, 7]: 20.8 h
- mean growth rate μ [2, 8]: 0.295 h⁻¹
- mean lag time tlag [2, 8]: 16.6 h
- mean growth rate μ [2, 9]: 0.305 h⁻¹
- mean lag time tlag [2, 9]: 23.3 h
- mean growth rate μ [2, 10]: 0.295 h⁻¹
- mean lag time tlag [2, 10]: 20.1 h
- mean growth rate μ [2, 11]: 0.332 h⁻¹
- mean lag time tlag [2, 11]: 6.8 h
- mean growth rate μ [2, 12]: 0.401 h⁻¹
- mean lag time tlag [2, 12]: 4.7 h
- mean growth rate μ [2, 13]: 0.370 h⁻¹
- mean lag time tlag [2, 13]: 14.4 h
- mean growth rate μ [2, 14]: 0.280 h⁻¹
- mean lag time tlag [2, 14]: 6.5 h
- mean growth rate μ [2, 15]: 0.279 h⁻¹
- mean lag time tlag [2, 15]: 6.8 h
- mean growth rate μ [2, 16]: 0.284 h⁻¹
- mean lag time tlag [2, 16]: 7.1 h
- mean growth rate μ [2, 17]: 0.189 h⁻¹
- mean lag time tlag [2, 17]: 7.6 h
- mean growth rate μ [2, 18]: 0.292 h⁻¹
- mean lag time tlag [2, 18]: 19.3 h
- mean growth rate μ [2, 19]: 0.201 h⁻¹
- mean lag time tlag [2, 19]: 6.0 h
- mean growth rate μ [2, 20]: 0.206 h⁻¹
- mean lag time tlag [2, 20]: 7.2 h
- mean growth rate μ [2, 21]: 0.200 h⁻¹
- mean lag time tlag [2, 21]: 6.8 h
- mean growth rate μ [2, 22]: 0.133 h⁻¹
- mean lag time tlag [2, 22]: 21.4 h
